In publication PMC8953660, “Selective measurement of NAPE-PLD activity via a PLA1/2-resistant fluorogenic N-acyl-phosphatidylethanolamine analog” (Journal of Lipid Research, 2021) one finds Km data, which are given here for two compounds.

The test deals with T1, recombinant mouse Nape-pld (NAPE-PLD) (Mus musculus, UniProt Q8BH82).
T1 construct: gene Napepld
Conditions: 50 mM Tris-HCl pH 8.0, N-octyl-β-D-glucoside, 37 °C, allosteric sigmoidal fit.

Structures are written as SMILES. Read-outs that look alike come from different tables or passages of the source.

T1 sequence (Q8BH82 whole entry): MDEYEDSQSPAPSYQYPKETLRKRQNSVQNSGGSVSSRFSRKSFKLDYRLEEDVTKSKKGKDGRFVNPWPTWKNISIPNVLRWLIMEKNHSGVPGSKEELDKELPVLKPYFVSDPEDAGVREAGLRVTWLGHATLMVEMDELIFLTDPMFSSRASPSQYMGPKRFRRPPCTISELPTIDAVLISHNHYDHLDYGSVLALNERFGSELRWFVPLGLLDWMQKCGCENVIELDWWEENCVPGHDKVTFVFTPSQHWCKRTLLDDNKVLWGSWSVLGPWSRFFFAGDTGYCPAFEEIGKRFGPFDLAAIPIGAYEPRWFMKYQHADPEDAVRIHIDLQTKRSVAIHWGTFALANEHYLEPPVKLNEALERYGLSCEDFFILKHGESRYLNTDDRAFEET

Regarding `CCCCCCO[C@@H](COP(=O)(O)OCCNC(=O)CCCCCNc1ccc([N+](=O)[O-])cc1[N+](=O)[O-])CN(C)C(=O)CCCCc1ccc2n1[B-](F)(F)[N+]1=C(C)C=C(C)C1=C2` [flame-NAPE], under “authors note evidence of an inadequate regression model for flame-NAPE”, the Km amounted to 9.2 µM. Take `CCCCCCO[C@H](COC(=O)CCCCC1=[N+]2C(=Cc3c(C)cc(C)n3[B-]2(F)F)C=C1)COP(=O)(O)OCCNC(=O)CCCCCNc1ccc([N+](=O)[O-])cc1[N+](=O)[O-]` [PED-A1]: the Km came out at 4 µM.
